Reference: publication PMC3992131 (Nature chemical biology, 2014)
Read-outs that look alike come from different tables or passages of the source. Where a SMILES comes first, the peptide text is derived from it. Bridges are numbered along the chain shown (N, C = ends). Where no end group is shown, it is not given here.

Columns and labels:
FhuA = conditions: cited from earlier work
[1] = molecular target: FhuA from E. coli MG1655 with an internal His-tag (E. coli) (UniProt P06971); assay: native MS
FhuA (Escherichia coli) = FhuA (Escherichia coli) (UniProt P06971); assay: ITC; conditions: cited from earlier work
E. coli FhuA = molecular target: T1, E. coli FhuA (Escherichia coli, UniProt P06971); assay: biochemical; assay type: binding, Escherichia coli MG1655
T1 sequence (P06971 34-747): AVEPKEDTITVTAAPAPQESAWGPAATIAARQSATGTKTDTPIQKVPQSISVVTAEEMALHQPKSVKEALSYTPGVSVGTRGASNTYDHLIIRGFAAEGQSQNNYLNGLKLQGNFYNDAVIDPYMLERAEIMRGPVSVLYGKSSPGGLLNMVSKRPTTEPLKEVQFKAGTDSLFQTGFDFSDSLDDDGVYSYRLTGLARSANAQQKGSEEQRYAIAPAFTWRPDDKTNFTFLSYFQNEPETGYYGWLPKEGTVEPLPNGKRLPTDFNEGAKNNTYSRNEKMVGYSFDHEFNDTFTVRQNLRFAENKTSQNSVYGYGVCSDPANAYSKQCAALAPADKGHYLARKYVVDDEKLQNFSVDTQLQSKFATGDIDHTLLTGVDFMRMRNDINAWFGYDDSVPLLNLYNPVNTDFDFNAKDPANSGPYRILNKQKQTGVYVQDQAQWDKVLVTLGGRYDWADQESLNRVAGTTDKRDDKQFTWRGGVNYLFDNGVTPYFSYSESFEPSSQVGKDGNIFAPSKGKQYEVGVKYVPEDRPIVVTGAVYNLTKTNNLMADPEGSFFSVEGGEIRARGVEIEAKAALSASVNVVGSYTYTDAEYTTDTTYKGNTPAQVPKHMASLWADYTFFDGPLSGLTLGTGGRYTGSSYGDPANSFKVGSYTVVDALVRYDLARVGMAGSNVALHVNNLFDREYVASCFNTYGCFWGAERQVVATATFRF

human erythrocytes = conditions: cited from earlier work
[2] = complex fluid matrices; cited from earlier work
Salmonella = conditions: mouse model of infection by Salmonella; cited from earlier work
E. coli RNA polymerase = conditions: in vitro; cited from earlier work
[3] = system: E. coli W3110 wildtype and tonB− strains; assay: tonB antibacterial assay; assay type: cell-based; conditions: spot-on-lawn, 10 μL MccJ25 in MeOH (1-100 μg/mL), LB agar, 37°C overnight
[4] = system: Escherichia and Salmonella species; conditions: cited from earlier work

For `CO[C@H]1/C=C/O[C@@]2(C)Oc3c(C)c(O)c4c(c3C2=O)C(=O)C(N2CCOCC2)=C(NC(=O)/C(C)=C\C=C\[C@H](C)[C@H](O)[C@@H](C)[C@@H](O)[C@@H](C)[C@H](OC(=O)CC(=O)OCC2CCCN(C)C2)[C@@H]1C)C4=O` (stereo partly shown) [CGP 4832], the “transport by FhuA” value (FhuA) is given as “can transport”.
MccJ25[His5Lys] (peptide) gave a Kd [1] of 16.9 µM.
For MccJ25 (from UniProt Q9X2V7), the Kd (FhuA (Escherichia coli)) is given as 1.2 µM.
In the case of “t-MccJ25: MccJ25 hydrolyzed between Phe10 and Val11, obtained by incubation of MccJ25 in the presence of thermolysin (chain 1 GGAGHVPEYF; chain 2 VGIGTPISFYG; also: lactam at chain A 8 to a chain's N-terminus)”, the “binding to FhuA (result in words)” value (E. coli FhuA) is reported as “absence of binding to FhuA”.
For `CC[C@H](C)[C@H](NC(=O)CNC(=O)[C@@H](NC(=O)[C@H](Cc1ccccc1)NC(=O)[C@H](Cc1ccc(O)cc1)NC(=O)[C@@H]1CCC(=O)NCC(=O)NCC(=O)N[C@@H](C)C(=O)NCC(=O)N[C@@H](Cc2cnc[nH]2)C(=O)N[C@@H](C(C)C)C(=O)N2CCC[C@H]2C(=O)N1)C(C)C)C(=O)NCC(=O)N[C@H](C(=O)N1CCC[C@H]1C(=O)N[C@H](C(=O)N[C@@H](CO)C(=O)N[C@@H](Cc1ccccc1)C(=O)N[C@@H](Cc1ccc(O)cc1)C(=O)NCC(=O)O)[C@@H](C)CC)[C@@H](C)O` [MccJ25, microcin J25] (GGAGHVPEYFVGIGTPISFYG-OH; lactam N-8), the haemolytic activity (human erythrocytes) is given as “without haemolytic activity on human erythrocytes” and the Kd (E. coli FhuA) is given as 0.98 ± 0.02 µM.
In the case of `CC[C@H](C)[C@H](NC(=O)CNC(=O)[C@@H](NC(=O)[C@H](Cc1ccccc1)NC(=O)[C@H](Cc1ccc(O)cc1)NC(=O)[C@@H]1CCC(=O)NCC(=O)NCC(=O)N[C@@H](C)C(=O)NCC(=O)N[C@@H](Cc2c[nH]cn2)C(=O)N[C@@H](C(C)C)C(=O)N2CCC[C@H]2C(=O)N1)C(C)C)C(=O)NCC(=O)N[C@H](C(=O)N1CCC[C@H]1C(=O)N[C@H](C(=O)N[C@@H](CO)C(=O)N[C@@H](Cc1ccccc1)C(=O)N[C@@H](Cc1ccc(O)cc1)C(=O)NCC(=O)O)[C@@H](C)CC)[C@@H](C)O` [MccJ25, microcin J25] (GGAGHVPEYFVGIGTPISFYG-OH; lactam N-8; C-terminus assumed), the “antibacterial activity ex vivo” value [2] is listed as “has been demonstrated both ex vivo, in complex fluid matrices”, the “antibacterial activity in vivo” value (Salmonella) is listed as “in vivo in a mouse model of infection by Salmonella” and the “inhibition of E. coli RNA polymerase” value (E. coli RNA polymerase) is listed as “inhibit E. coli RNA polymerase with equal efficiency in vitro”. The “internalization dependence on TonB” value [3] was “dependent on the FhuA-TonB system”, the antibacterial activity/spectrum [4] was “potent antibacterial activity exclusively against Escherichia and some Salmonella species” and the antibacterial activity/spectrum ([4]; through inhibition of RNA polymerase) was “potent, narrow spectrum antibacterial activity against Escherichia and Salmonella species”.
For `CO[C@H]1/C=C/O[C@@]2(C)Oc3c(C)c(O)c4c(O)c(cc(O)c4c3C2=O)NC(=O)/C(C)=C\C=C\[C@H](C)[C@H](O)[C@@H](C)[C@@H](O)[C@@H](C)[C@H](OC(C)=O)[C@@H]1C` [rifamycin], the “transport by FhuA” value (FhuA) is listed as “cannot efficiently transport”.
